Assay results from paper PMC7932521, “2-aminobenzimidazoles for leishmaniasis: From initial hit discovery to in vivo profiling” (PLoS Neglected Tropical Diseases, 2021).
Read-outs that look alike come from different tables or passages of the source.

Assays:
5-HT2B [1] = target: T1, 5-HT2B (Homo sapiens, UniProt P41595); assay: Bioprofiling 6pt Ag 5-HT2B CHO; format: cell-based; settings: agonist readout
T1 construct: expressed in transfected cells; host or cells: CHO
Method: (§1) The compounds were evaluated across a panel of 20 liability targets (37 functional assays) which included functional cell-based GPCRs and ion channels in both agonist and antagonist readout, measuring calcium flux and biochemical functional assays for nuclear hormone receptors and phosphodiesterases using TR-FRET format, in a 6 point 1:3 dilution dose series (maximum final concentration of 10 μM).

ETB [2] = target: T2, ETB (Homo sapiens, UniProt P24530); assay: Bioprofiling 6pt Antag ETB CHO; format: cell-based; settings: antagonist readout vs BQ-3020
T2 construct: expressed in transfected cells; host or cells: CHO
T2 sequence (P24530 27-442): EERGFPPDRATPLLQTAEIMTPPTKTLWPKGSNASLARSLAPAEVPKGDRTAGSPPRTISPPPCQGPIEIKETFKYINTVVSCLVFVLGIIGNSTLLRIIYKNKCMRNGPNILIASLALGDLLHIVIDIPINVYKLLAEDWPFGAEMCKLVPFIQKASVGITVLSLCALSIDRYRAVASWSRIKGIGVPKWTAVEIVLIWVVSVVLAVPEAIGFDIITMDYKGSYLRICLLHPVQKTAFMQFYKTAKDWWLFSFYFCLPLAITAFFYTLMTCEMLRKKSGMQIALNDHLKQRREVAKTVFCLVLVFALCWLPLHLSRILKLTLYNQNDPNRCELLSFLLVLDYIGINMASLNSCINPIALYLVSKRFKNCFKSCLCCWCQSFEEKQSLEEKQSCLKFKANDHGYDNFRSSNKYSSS
Method: as §1

CB1 = target: T3, CB1 (Homo sapiens, UniProt P21554); assay: Bioprofiling 6pt Antag CB1 CHO; format: cell-based; settings: antagonist readout vs WIN 55,212-2
T3 construct: expressed in transfected cells; host or cells: CHO
T3 sequence (P21554 whole entry): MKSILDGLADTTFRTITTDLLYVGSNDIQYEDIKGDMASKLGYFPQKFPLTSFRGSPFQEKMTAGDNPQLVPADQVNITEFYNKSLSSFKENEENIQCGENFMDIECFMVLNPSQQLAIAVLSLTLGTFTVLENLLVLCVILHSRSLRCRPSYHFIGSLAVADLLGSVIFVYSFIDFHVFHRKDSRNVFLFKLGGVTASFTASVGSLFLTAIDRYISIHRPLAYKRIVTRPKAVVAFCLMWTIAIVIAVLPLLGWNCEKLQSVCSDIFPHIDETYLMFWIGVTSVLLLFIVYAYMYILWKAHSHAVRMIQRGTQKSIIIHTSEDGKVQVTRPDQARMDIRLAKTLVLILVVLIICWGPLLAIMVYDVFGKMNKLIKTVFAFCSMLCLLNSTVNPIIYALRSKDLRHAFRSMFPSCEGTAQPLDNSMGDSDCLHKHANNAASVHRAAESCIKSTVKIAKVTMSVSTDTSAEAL
Method: as §1

A1 = target: T4, A1 (Homo sapiens, UniProt P30542); assay: Bioprofiling 6pt Ag A1 CHO; format: cell-based; settings: agonist readout
T4 construct: expressed in transfected cells; host or cells: CHO
T4 sequence (P30542 1-326): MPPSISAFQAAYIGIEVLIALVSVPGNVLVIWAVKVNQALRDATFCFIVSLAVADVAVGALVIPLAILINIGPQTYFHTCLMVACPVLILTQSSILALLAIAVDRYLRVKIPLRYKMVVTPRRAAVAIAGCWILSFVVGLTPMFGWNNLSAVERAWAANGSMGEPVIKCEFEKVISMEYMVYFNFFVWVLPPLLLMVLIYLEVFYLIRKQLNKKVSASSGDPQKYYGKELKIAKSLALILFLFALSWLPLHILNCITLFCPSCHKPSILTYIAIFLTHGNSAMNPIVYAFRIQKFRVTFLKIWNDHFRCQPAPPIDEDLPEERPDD
Method: as §1

Beta1 = target: T5, Beta1 (Homo sapiens, UniProt P08588); assay: Bioprofiling 6pt Ag Beta1 CHO; format: cell-based; settings: agonist readout
T5 construct: expressed in transfected cells; host or cells: CHO
T5 sequence (P08588 whole entry): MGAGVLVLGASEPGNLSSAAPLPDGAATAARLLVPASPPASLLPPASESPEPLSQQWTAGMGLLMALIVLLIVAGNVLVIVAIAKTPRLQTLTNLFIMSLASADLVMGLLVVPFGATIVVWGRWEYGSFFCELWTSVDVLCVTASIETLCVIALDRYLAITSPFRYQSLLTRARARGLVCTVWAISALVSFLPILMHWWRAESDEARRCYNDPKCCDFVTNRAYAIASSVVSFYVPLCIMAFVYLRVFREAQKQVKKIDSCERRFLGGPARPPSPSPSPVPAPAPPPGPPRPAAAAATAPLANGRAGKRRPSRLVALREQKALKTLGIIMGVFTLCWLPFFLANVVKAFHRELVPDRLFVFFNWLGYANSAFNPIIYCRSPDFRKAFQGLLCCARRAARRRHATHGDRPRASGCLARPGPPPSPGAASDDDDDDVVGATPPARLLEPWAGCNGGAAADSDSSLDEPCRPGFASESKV
Method: as §1

Alpha1A = target: T6, Alpha1A (Homo sapiens, UniProt P35348); assay: Bioprofiling 6pt Ag Alpha1A CHO; format: cell-based; settings: agonist readout
T6 construct: expressed in transfected cells; host or cells: CHO
T6 sequence (P35348 1-466): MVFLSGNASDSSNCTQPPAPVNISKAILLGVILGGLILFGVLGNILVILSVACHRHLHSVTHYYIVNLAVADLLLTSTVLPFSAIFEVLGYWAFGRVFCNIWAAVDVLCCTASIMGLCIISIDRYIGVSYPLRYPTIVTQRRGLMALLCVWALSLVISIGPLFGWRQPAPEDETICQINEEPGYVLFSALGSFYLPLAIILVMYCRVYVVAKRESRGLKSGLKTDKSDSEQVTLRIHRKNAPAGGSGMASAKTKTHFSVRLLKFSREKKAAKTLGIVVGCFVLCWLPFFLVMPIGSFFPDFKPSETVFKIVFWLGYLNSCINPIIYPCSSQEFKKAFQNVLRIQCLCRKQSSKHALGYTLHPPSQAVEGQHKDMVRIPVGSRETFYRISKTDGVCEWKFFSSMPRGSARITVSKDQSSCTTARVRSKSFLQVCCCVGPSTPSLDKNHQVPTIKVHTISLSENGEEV
Method: as §1

ETB [3] = target: T2, ETB; assay: Bioprofiling 6pt Ag ETB CHO; format: cell-based; settings: agonist readout
Method: as §1

D2L [4] = target: T7, D2L (Homo sapiens, UniProt P14416); assay: Bioprofiling 6pt Antag D2L CHO; format: cell-based; settings: antagonist readout vs Quinpirole
T7 construct: expressed in transfected cells; host or cells: CHO
T7 sequence (P14416 whole entry): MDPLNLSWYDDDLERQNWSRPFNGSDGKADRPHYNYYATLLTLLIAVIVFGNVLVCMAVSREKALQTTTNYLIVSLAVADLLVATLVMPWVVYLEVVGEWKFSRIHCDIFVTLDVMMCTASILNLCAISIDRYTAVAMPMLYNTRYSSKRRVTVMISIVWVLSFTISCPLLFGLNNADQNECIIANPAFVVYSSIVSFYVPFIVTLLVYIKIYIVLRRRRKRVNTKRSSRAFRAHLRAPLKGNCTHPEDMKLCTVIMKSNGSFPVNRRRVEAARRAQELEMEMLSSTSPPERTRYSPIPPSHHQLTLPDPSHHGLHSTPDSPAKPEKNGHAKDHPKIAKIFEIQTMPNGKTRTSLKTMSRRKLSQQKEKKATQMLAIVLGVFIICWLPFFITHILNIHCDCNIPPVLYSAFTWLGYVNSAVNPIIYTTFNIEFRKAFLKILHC
Method: as §1

5-HT2B [5] = target: T1, 5-HT2B; assay: Bioprofiling 6pt Antag 5-HT2B CHO; format: cell-based; settings: antagonist readout vs Serotonin (5-HT)
Method: as §1

[6] = Mouse liver microsomal stability; format: in vitro ADME
How it was run: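 Test compound at 0.5 μM incubated with 0.25 mg/mL human (200-donor pool) or CD1 mouse liver microsomes, pH 7.4, 37°C, started with […]; sampled 0–30 min. LC-MS/MS quantitation against internal standard; t1/2 and Clint (μL/min/mg) from non-linear regression of % remaining versus time.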

D2L [7] = target: T7, D2L; assay: Bioprofiling 6pt Ag D2L CHO; format: cell-based; settings: agonist readout
Method: as §1

[8] = test system: PMM (Primary Mouse Macrophages); assay: Cytotoxicity on primary peritoneal mouse macrophages; format: cell-based; settings: Mus musculus, Macrophage
How it was run: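 Host cells were peritoneal macrophages from Swiss mice, harvested after 2 days of starch stimulation and kept in RPMI-1640 with 5% FCS at 37 °C, 5% CO2. Compounds were tested in 4-fold dilutions from 64 μM, with final DMSO below 1%.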

[9] = read-out: IC-50 PMM (Primary Mouse Macrophages)
[10] = mouse liver microsome intrinsic clearance

T1 sequence (P41595 whole entry): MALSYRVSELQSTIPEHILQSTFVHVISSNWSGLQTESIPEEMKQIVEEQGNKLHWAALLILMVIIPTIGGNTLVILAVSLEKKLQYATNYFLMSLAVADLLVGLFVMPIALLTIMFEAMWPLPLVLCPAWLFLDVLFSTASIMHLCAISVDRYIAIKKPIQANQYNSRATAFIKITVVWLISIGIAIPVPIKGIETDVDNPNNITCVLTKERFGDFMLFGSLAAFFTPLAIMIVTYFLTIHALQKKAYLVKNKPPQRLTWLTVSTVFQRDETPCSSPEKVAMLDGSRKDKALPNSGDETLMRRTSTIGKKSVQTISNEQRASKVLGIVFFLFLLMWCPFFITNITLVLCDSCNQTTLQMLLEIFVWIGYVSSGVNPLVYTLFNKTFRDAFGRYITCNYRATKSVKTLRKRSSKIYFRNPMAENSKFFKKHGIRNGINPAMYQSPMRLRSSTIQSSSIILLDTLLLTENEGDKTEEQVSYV

For `Cn1nccc1C(=O)Nc1nc2ccc(C#N)cc2n1CC(C)(C)C` [Compound 29, O=C(Nc1n(CC(C)(C)C)c(c2n1)cc(C#N)cc2)c3n(C)ncc3], which EC50 (5-HT2B [1]) is on record?
The EC50 was over 10 µM.

What about the IC50 (ETB [2]) of the same compound?
The IC50 was over 10 µM.

What about the IC50 (CB1) of the same compound?
Its IC50 is over 10 µM.

And the EC50 (A1)?
The EC50 was over 10 µM.

And the EC50 (Beta1)?
The EC50 was over 10 µM.

And the EC50 (Alpha1A)?
Its EC50 is over 10 µM.

What about the EC50 (ETB [3]) of the same compound?
The EC50 was over 10 µM.

And the IC50 (D2L [4])?
The IC50 was over 10 µM.

And the IC50 (5-HT2B [5])?
Its IC50 is over 10 µM.

What about the microsomal CLint at 0.5 μM ([6]; CD1, mouse, liver microsomes, pH 7.4, mouse liver microsome intrinsic clearance, read-out: MLM Clint) of the same compound?
The microsomal CLint at 0.5 μM was 17 µL/min/mg.

And the EC50 (D2L [7])?
Its EC50 is over 10 µM.

And the IC50 [8, 9]?
Its IC50 is 49.3 µM.

What about the IC50 ([8]; read-out: PMM IC50) of the same compound?
The IC50 was 27.4 µM.

Which EC50 (5-HT2B [1]) does the source give for `Cn1nccc1C(=O)Nc1nc2ccc(C#N)cc2n1CC(F)(F)F` [Compound 30, O=C(c1ccnn1C)Nc2nc(ccc(C#N)c3)c3n2CC(F)(F)F] here?
Its EC50 is over 10 µM.

And the IC50 (ETB [2])?
The IC50 was over 10 µM.

What about the IC50 (CB1) of the same compound?
The IC50 was over 10 µM.

What about the EC50 (A1) of the same compound?
The EC50 was over 10 µM.

What about the EC50 (Beta1) of the same compound?
The EC50 was over 10 µM.

And the EC50 (Alpha1A)?
The EC50 was over 10 µM.

What about the EC50 (ETB [3]) of the same compound?
Its EC50 is over 10 µM.

What about the IC50 (D2L [4]) of the same compound?
The IC50 was over 10 µM.

And the IC50 (5-HT2B [5])?
The IC50 was over 10 µM.

What about the “MLM CLint” value [6, 10] of the same compound?
The value was 20 µL/min/mg.

And the EC50 (D2L [7])?
Its EC50 is over 10 µM.

And the IC50 ([8]; read-out: PMM IC50)?
The IC50 was 32 µM.

What does the source list for `Cn1nc(C(F)(F)F)cc1C(=O)Nc1nc2ccc(C#N)cc2n1CC(F)(F)F` [Compound 39, O=C(c1cc(C(F)(F)F)nn1C)Nc2nc(ccc(C#N)c3)c3n2CC(F)(F)F]?
EC50 (5-HT2B [1]): > 10 µM; IC50 (ETB [2]): > 10 µM; IC50 (CB1): > 10 µM; EC50 (A1): > 10 µM; EC50 (Beta1): > 10 µM; EC50 (Alpha1A): > 10 µM; EC50 (ETB [3]): > 10 µM; IC50 (D2L [4]): > 10 µM; IC50 (5-HT2B [5]): > 10 µM; MLM CLint [6, 10]: 28 µL/min/mg; EC50 (D2L [7]): > 10 µM; IC50 [8, 9]: 34.3 µM; IC50 ([8]; read-out: PMM IC50): 1.26 µM

For `COc1ccc(C(=O)Nc2nc3ccc(C#N)cc3n2CC(F)(F)F)cn1` [Compound 43, O=C(c1ccc(OC)nc1)Nc2nc(ccc(C#N)c3)c3n2CC(F)(F)F], which EC50 (5-HT2B [1]) is on record?
Its EC50 is over 10 µM.

And the IC50 (ETB [2])?
Its IC50 is over 10 µM.

What about the IC50 (CB1) of the same compound?
The IC50 was over 10 µM.

And the EC50 (A1)?
The EC50 was over 10 µM.

And the EC50 (Beta1)?
Its EC50 is over 10 µM.

What about the EC50 (Alpha1A) of the same compound?
Its EC50 is over 10 µM.

And the EC50 (ETB [3])?
The EC50 was over 10 µM.

What about the IC50 (D2L [4]) of the same compound?
The IC50 was over 10 µM.

And the IC50 (5-HT2B [5])?
The IC50 was over 10 µM.

And the “MLM CLint” value ([6]; S1 Data)?
Its value is 170 µL/min/mg.

And the EC50 (D2L [7])?
Its EC50 is over 10 µM.

And the IC50 ([8]; read-out: PMM IC50)?
The IC50 was 32 µM.

With `N#Cc1ccc2nc(NC(=O)c3ccnc(C(F)(F)F)c3)n(CC(F)(F)F)c2c1` [Compound 44, O=C(c1ccnc(C(F)(F)F)c1)Nc2nc(ccc(C#N)c3)c3n2CC(F)(F)F] as the compound, how does the EC50 (5-HT2B [1]) read?
Its EC50 is over 10 µM.

What about the IC50 (ETB [2]) of the same compound?
The IC50 was over 10 µM.

And the IC50 (CB1)?
Its IC50 is over 10 µM.

What about the EC50 (A1) of the same compound?
The EC50 was over 10 µM.

And the EC50 (Beta1)?
The EC50 was over 10 µM.

And the EC50 (Alpha1A)?
Its EC50 is over 10 µM.

And the EC50 (ETB [3])?
Its EC50 is over 10 µM.

And the IC50 (D2L [4])?
The IC50 was over 10 µM.

What about the IC50 (5-HT2B [5]) of the same compound?
The IC50 was over 10 µM.

What about the “MLM CLint” value [6, 10] of the same compound?
Its value is 27 µL/min/mg.

What about the EC50 (D2L [7]) of the same compound?
Its EC50 is over 10 µM.

And the IC50 ([8]; read-out: PMM IC50)?
Its IC50 is 4 µM.

With `N#Cc1ccc2nc(NC(=O)c3ccc(C(F)(F)F)nc3)n(CC(F)(F)F)c2c1` [Compound 45, O=C(c1ccc(C(F)(F)F)nc1)Nc2nc(ccc(C#N)c3)c3n2CC(F)(F)F] as the compound, how does the EC50 (5-HT2B [1]) read?
Its EC50 is over 10 µM.

And the IC50 (ETB [2])?
Its IC50 is over 10 µM.

What about the IC50 (CB1) of the same compound?
Its IC50 is over 10 µM.

What about the EC50 (A1) of the same compound?
Its EC50 is over 10 µM.

And the EC50 (Beta1)?
Its EC50 is over 10 µM.

What about the EC50 (Alpha1A) of the same compound?
Its EC50 is over 10 µM.

And the EC50 (ETB [3])?
Its EC50 is over 10 µM.

And the IC50 (D2L [4])?
The IC50 was over 10 µM.

And the IC50 (5-HT2B [5])?
The IC50 was over 10 µM.

And the “MLM CLint” value ([6]; S1 Data)?
The value was 18 µL/min/mg.

And the EC50 (D2L [7])?
Its EC50 is over 10 µM.

And the IC50 ([8]; read-out: PMM IC50)?
Its IC50 is 8 µM.
